Test results reported in PubChem BioAssay (NCI).
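Five concentrations, 48 hours, 96-well plates. GI50 marks 50% less growth. TGI is the concentration that stops growth completely.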

Columns and labels:
Test in all cases: DTP human tumour cell line panel, 48 h
OVCAR-5 ovarian = tested on: OVCAR-5 ovarian
OVCAR-3 ovarian = tested on: OVCAR-3 ovarian
OVCAR-8 ovarian = tested on: OVCAR-8 ovarian
U251 CNS = tested on: U251 CNS
A549 NSCLC = tested on: A549 NSCLC
UACC-257 melanoma = tested on: UACC-257 melanoma
NCI-H522 lung = tested on: NCI-H522 lung
SF-268 CNS = tested on: SF-268 CNS
TK-10 renal = tested on: TK-10 renal
MDA-MB-231 breast = tested on: MDA-MB-231 breast

Compound | TGI (OVCAR-5 ovarian) [µM] | TGI (OVCAR-3 ovarian) [µM] | TGI (OVCAR-8 ovarian) [µM] | TGI (U251 CNS) [µM] | TGI (A549 NSCLC) [µM] | TGI (UACC-257 melanoma) [µM] | TGI (NCI-H522 lung) [µM] | TGI (SF-268 CNS) [µM] | TGI (TK-10 renal) [µM] | TGI (MDA-MB-231 breast) [µM] | GI50 (OVCAR-5 ovarian) [µM] | GI50 (OVCAR-3 ovarian) [nM] | GI50 (OVCAR-8 ovarian) [nM] | GI50 (U251 CNS) [nM] | GI50 (MDA-MB-231 breast) [nM] | GI50 (A549 NSCLC) [nM] | GI50 (NCI-H522 lung) [nM] | GI50 (SF-268 CNS) [nM] | GI50 (TK-10 renal) [nM] | GI50 (UACC-257 melanoma) [µM]
CC(c1ccc(Br)cc1)C(C(=O)O)C(=O)O (stereo unspecified) | > 100 | > 100 | > 100 | > 100 | > 100 | > 100 | > 100 | > 100 | > 100 |  |  |  |  |  |  |  |  |  |  | 
C(=C\c1csnn1)/c1cccnc1 | > 100 | > 100 | > 100 | > 100 | > 100 | > 100 | > 100 | > 100 | > 100 |  |  |  |  |  |  |  |  |  |  | 
O=c1c2ccc3cccc4c(=O)cc(c5ccccc15)-c2c34 | > 100 | > 100 | > 100 | > 100 | > 100 | > 100 | > 100 | > 100 | > 100 |  |  |  |  |  |  |  |  |  |  | 
Cn1c(CCC#N)nc2ccc(Br)cc2c1=O | > 100 |  | > 100 | > 100 | > 100 | > 100 | > 100 | > 100 | > 100 |  |  |  |  |  |  |  |  |  |  | 
O=c1/c(=C/c2ccc(Cl)cc2Cl)sc2nc3ccccc3n12 | > 100 | > 100 | > 100 | > 100 | > 100 | > 100 | > 100 | > 100 | > 100 |  |  |  |  |  |  |  |  |  |  | 
O=C(Nc1c(-c2nc3ccccc3[nH]2)sc(=S)n1-c1ccccc1)c1ccccc1 | > 100 | > 100 | > 100 | > 100 | > 100 | > 100 | > 100 | > 100 | > 100 |  |  |  |  |  |  |  |  |  |  | 
CCCCCCCCCCCCCCCC(=O)OCC(O)C1OC(=O)C(O)=C1O (stereo unspecified) | 95.4 | > 100 |  | 61.7 | 42.9 | > 100 | > 100 | 60.4 |  | 54.2 |  |  |  |  |  |  |  |  |  | 
O=C(CCC(=O)Nc1ccc(Cl)cc1)CC(=O)c1ccc(F)cc1 | > 100 | > 100 | > 100 |  | > 100 | > 100 | > 100 | > 100 | > 100 |  |  |  |  |  |  |  |  |  |  | 
Cc1ccc(NC(=O)/C(CC(=O)c2c[n+](=O)c3ccccc3n2O)=N\NC(=O)C[n+]2ccccc2)cc1 | > 100 | > 100 | > 100 | > 100 | > 100 | > 100 | > 100 | > 100 | > 100 |  |  |  |  |  |  |  |  |  |  | 
COc1ccc(O)c(C(=O)c2ccc(C(=O)O[C@@H]3CCCNC[C@H]3NC(=O)c3ccncc3)cc2)c1F | > 25 | > 7.35 | > 25 | > 22.7 | > 25 |  | > 13 | > 25 | > 25 | > 25 | > 19.3 | 961 | 1040 | 1170 | > 10300 | 592 | 1740 | 753 | 3510 | 
COc1ccc2c3c1C(=O)CCC3CO2 (stereo unspecified) | > 100 | > 100 | > 100 | > 100 | > 100 | > 100 | > 100 | > 100 | > 100 |  |  |  |  |  |  |  |  |  |  | 
CC(=O)OC12c3ccccc3C1CCCCCC21OCCCO1 (stereo unspecified) | > 100 | > 100 | > 100 | > 100 | > 100 |  | > 100 | > 100 | > 100 |  |  |  |  |  |  |  |  |  |  | 
CC(=O)N1CC2Nc3ccccc3C2CC1CO (stereo unspecified) | > 100 | > 100 | > 100 | > 100 | > 100 | > 100 | > 100 | > 100 | > 100 |  |  |  |  |  |  |  |  |  |  | 
N=C(c1ccccc1)N(O)C1CCCCC1 | > 100 |  | > 100 | > 100 | > 100 | > 100 | > 100 | > 100 | > 100 |  |  |  |  |  |  |  |  |  |  | 
O=c1ccccc2cccc(O)c12 |  | > 100 | > 100 | > 100 | > 100 | > 100 |  |  | > 100 |  |  |  |  |  |  |  |  |  |  | 
O=c1cc(Cl)nc[nH]1 | > 100 | > 100 | > 100 | > 100 | > 100 | > 100 | > 100 | > 100 | > 100 |  |  |  |  |  |  |  |  |  |  | 
O=C(OCCOCBr)c1ccccc1 | > 100 | > 100 | > 100 | > 100 | > 100 | > 100 | > 100 | > 100 | > 100 |  |  |  |  |  |  |  |  |  |  | 
Cc1cc(NS(=O)(=O)c2ccc(NC(=O)c3cccc4c(N)c5ccccc5nc34)cc2)no1 | > 100 | 52.8 | 59.4 | 78.2 | > 100 |  | 33.9 | 76.9 | > 100 |  |  |  |  |  |  |  |  |  |  | 
COC(OC)c1cccc2c1C1(O)CCC3(CC21)OCCCCO3 (stereo unspecified) | > 100 | > 100 | > 100 | > 100 | > 100 | > 100 | > 100 | > 100 | > 100 |  |  |  |  |  |  |  |  |  |  | 
COc1ccc2c(c1)c(C1(c3cn(C)c4ccc(OC)cc34)C(=O)Nc3ccc(F)cc31)cn2C | 84.8 | 87.4 | > 100 | > 100 |  | > 100 | 7.75 | > 100 |  | 18.6 | 9.94 | 10200 | 4280 | 4240 | 2890 |  | 2670 | 5700 |  | 5.28
CN(C)CCn1c2ccccc2c2nc3cc4ccccc4cc3nc21 |  | 28.2 | 23 | 19.5 | 16.9 |  | 21.7 | 6.26 | 26.4 |  |  |  |  |  |  |  |  |  |  | 
O=c1[nH]c(Br)nc2c(Br)c[nH]c12 | > 100 | > 100 | > 100 | > 100 | > 100 | > 100 | > 100 | > 100 | > 100 |  |  |  |  |  |  |  |  |  |  | 
CCC[CH2][Sn]([CH2]CCC)([O]C(=O)c1cccc(F)c1)[O]C(=O)c1cccc(F)c1 | 4.24 | 2.17 | 2.6 | 2.26 | 9.45 | 2.6 | 0.91 | 2.53 | 2.58 |  | 2.67 | 956 | 1220 | 1050 |  | 2890 | 246 | 1160 | 1290 | 1.17
